We go through eight compounds from ChEMBL document CHEMBL3882247, “Use of dibenzofuranone derivatives to inhibit kinases” (2013).

Activity calls are given as the source filed them. The rule behind the calls is not given here.

The test system of experiment [1] is LNCaP. Kind of experiment: Cytotoxicity against human LNCAP cells assessed as decrease in cell viability after 24 to 72 hrs by MTT assay. It is filed as functional, cell-based. (In general: Tetrazolium assays rely on reduction of a dye to a coloured formazan, in cell work by metabolically active cells.)
Experiment [2] concerns the target T1, Casein kinase II (Homo sapiens) (UniProt P67870+P68400+P19784). The experiment is described as follows: Inhibition of CK2 in human LNCAP cell lysates after 24 to 48 hrs in presence of [gamma-32P]ATP by radiometric analysis. It is filed as cell-based.
The subject of experiment [3] is LNCaP. The experiment is described as follows: Cytotoxicity against human LNCAP cells assessed as cell viability at 50 uM after 72 hrs by MTT assay. It is filed as functional.
The subject of experiment [4] is LNCaP. Kind of experiment: Cytotoxicity against human LNCAP cells assessed as cell viability at 50 uM after 48 hrs by MTT assay. It is filed as functional.
Experiment [5] relates to LNCaP. Kind of experiment: Cytotoxicity against human LNCAP cells assessed as cell viability at 50 uM after 24 hrs by MTT assay. It is filed as functional.
For experiment [6], the system named is LNCaP. The experiment is described as follows: Cytotoxicity against human LNCAP cells assessed as cell viability at 25 uM after 48 hrs by MTT assay. It is filed as functional.
Experiment [7] deals with LNCaP. The experiment is described as follows: Induction of apoptosis in human LNCAP cells assessed as PARP cleavage at 25 to 50 uM after 24 to 48 hrs by Western blot analysis. It is filed as functional, cell-based.
The subject of experiment [8] is LNCaP. Kind of experiment: Cytotoxicity against human LNCAP cells assessed as cell viability at 25 uM after 24 hrs by MTT assay. It is filed as functional.
Another experiment has as its target Casein kinase 2 (Rattus norvegicus, UniProt P19139). The experiment is described as follows: Inhibition of rat liver CK2 using RRRADDSDDDDD as substrate after 10 mins in presence of [gamma-33P]-ATP.
In experiment [9] the target is T1, Casein kinase II (Homo sapiens). The experiment is described as follows: Inhibition of CK2 (unknown origin) assessed as residual activity using E-peptide as substrate at 10 uM incubated for 10 mins prior to testing by capillary electrophoretic analysis. It is filed as protein-complex assay.
For experiment [10], the system named is LNCaP. Kind of experiment: Induction of apoptosis in human LNCAP cells assessed as PARP cleavage after 24 to 48 hrs by Western blot analysis. It is filed as functional, cell-based. (A western blot detects proteins with antibodies after separation by electrophoresis.)

Chain of Casein kinase 2 (P67874 whole entry): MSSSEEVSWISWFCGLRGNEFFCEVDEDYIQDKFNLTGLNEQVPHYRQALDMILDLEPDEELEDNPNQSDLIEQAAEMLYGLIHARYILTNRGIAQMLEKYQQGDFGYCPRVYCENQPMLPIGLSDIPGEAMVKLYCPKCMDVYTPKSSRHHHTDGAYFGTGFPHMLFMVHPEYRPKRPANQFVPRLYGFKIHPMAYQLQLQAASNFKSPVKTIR
Chain of Casein kinase 2 (P19139 whole entry): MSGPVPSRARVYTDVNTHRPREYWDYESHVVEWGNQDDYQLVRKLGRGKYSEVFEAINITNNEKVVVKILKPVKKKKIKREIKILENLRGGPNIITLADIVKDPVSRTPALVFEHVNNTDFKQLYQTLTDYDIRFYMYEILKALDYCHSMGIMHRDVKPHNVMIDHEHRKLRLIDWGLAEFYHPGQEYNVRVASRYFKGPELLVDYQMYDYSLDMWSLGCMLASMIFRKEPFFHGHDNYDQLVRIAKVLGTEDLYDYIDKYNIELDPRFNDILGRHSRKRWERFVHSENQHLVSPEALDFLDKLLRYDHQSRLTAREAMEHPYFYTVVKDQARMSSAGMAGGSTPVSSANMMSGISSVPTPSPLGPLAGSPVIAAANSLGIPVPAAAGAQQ

Turning to `COc1ccc(/N=C/c2c(O)ccc3c2oc2cc(Cl)c(O)c(Cl)c23)cc1`, the Activity result with LNCaP [1] is “Dose-dependent effect”. Moreover, the inhibition entry in [2] was “Active”.

In the case of `Brc1c(Br)c(Br)c2[nH]nnc2c1Br`, the outcome in the experiment on LNCaP [3], in the experiment on LNCaP [4], with LNCaP [5], with LNCaP [6], in the experiment with LNCaP [7] and in the experiment on LNCaP [8] was Active. The Activity result in the experiment on LNCaP [1] was “Dose-dependent effect”.

For `O=c1oc2c(O)c(O)cc3c(=O)oc4c(O)c(O)cc1c4c23` [ELLAGIC ACID], on Casein kinase 2, the IC50 (as a rule, the concentration that inhibits the measured activity by half) was determined as 40 nM.

Consider `COc1ccc(N/C=C2\C(=O)CCc3c2oc2cc(Cl)c(O)c(Cl)c32)cc1`, for which the Activity entry with LNCaP [1] is “Dose-dependent effect”. For the same compound, the inhibition entry in [2] is “Active”.

Take `CCOC(=O)c1oc2c(Cl)c(Cl)c(OC(C)=O)c(C#N)c2c1N`: in experiment [9], the Activity was 31%.

Take `Cc1ccc(N/C=C2\C(=O)CCc3c2oc2c(Cl)c(Cl)c(O)cc32)cc1`: the Activity entry with LNCaP [10] was “Dose-dependent effect”; in [9] it was less than 4%; in the experiment on LNCaP [1] it was “Dose-dependent effect”.

As to `CC(=O)Oc1c(Cl)c(Cl)c2oc(C(=O)C=C(C)C)c(N)c2c1C#N`, the Activity in experiment [9] came to 7%.

As for `CC(C)=CC(=O)c1oc2c(Cl)c(Cl)c(O)c(C#N)c2c1N`, the Activity in experiment [9] is less than 4%.
